Measurements: patent US10676514B2, “CDCA1-derived peptide and vaccine containing same” (ONCOTHERAPY SCIENCE, INC., priority 2014, dated 2020)
“Also recorded” adds a separate entry of the source.

Tests used:
[1] = test system: peptide-pulsed C1R-A11 cells; assay: IFN-gamma ELISPOT assay of peptide-induced CTLs (HLA-A*1101); assay type: cell-based, human; conditions: CTLs induced from HLA-A*1101-positive donors, peptide-pulsed C1R-A11 vs control
How it was run: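 CD8+ T cells from HLA-A*1101-positive healthy donors stimulated three times (days 0, 7, 14) with autologous monocyte-derived DCs pulsed with 20 μg/ml peptide, with IL-7 and IL-2. On day 21, CTL lines and clones tested by IFN-γ ELISPOT against peptide-pulsed C1R-A11 stimulators (1×10^4 cells/well).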

[2] = test system: peptide-pulsed C1R-A03; assay: IFN-gamma ELISPOT assay of peptide-induced CTLs (HLA-A*0301); assay type: cell-based, human; conditions: CTLs induced from HLA-A*0301-positive donors, peptide-pulsed C1R-A03 vs control
Excerpt: Monocyte-derived dendritic cells (DCs) were used as the antigen-presenting cell to induce a cytotoxic T lymphocyte (CTL) response against peptides presented on human leukocyte antigens (HLAs). As described in the other sections, DCs were generated in vitro (Nakahara S et al., Cancer Res 2003, 63(14): 4112-8). Specifically, peripheral-blood mononuclear cells isolated from healthy volunteers (HLA-A*0301-positive) with the Ficoll-Paque plus solution (Pharmacia) were separated by attaching to plastic tissue culture dishes (Becton Dickinson) and concentrated as a monocyte fraction. The monocyte-concentrated population was cultured in the presence of 1000 IU/ml granulocyte macrophage colony-stimulating factor (R&D System) and 1000 IU/ml interleukin(IL)-4 (R&D System) in an AIM-V medium (Invitrogen) containing 2% heat-inactivated autologous serum (AS). After seven days of culturing, the cytokine-induced DCs were pulsed with 20 micro-g/ml each of the synthesized peptides in an AIM-V medium at 37 degrees C. for three hours in the presence of 3 micro-g/ml beta 2-microglobulin. The generated cells appeared to express on their cell surface DC-associated molecules such as CD80, CD83, CD86 and HLA class II (data not shown). Next, these peptide-pulsed DCs were inactivated by X-ray irradiation (20 Gy), and mixed in a 1:20 ratio with autologous CD8^+ T cells obtained by positive selection using the CD8 Positive Isolation Kit (Dynal). These culture products were seeded in a 48-well plate (Corning). Each well was made to contain 1.5×10^4 peptide-pulsed DCs, 3×10^5 CD8^+ T cells and 10 ng/ml IL-7 (R&D System) in 0.5 ml of the AIM-V/2% AS medium. Three days later, these culture products were added with a final concentration of 20 IU/ml IL-2 (CHIRON). On day 7 and day 14, T cells were further stimulated with peptide-pulsed autologous DCs. The DCs were prepared every time by the same method as above. On day 21, after the third peptide stimulation, CTLs were examined against the peptide-pulsed C1R-A03 by a human interferon (IFN)-gamma enzyme-linked immunospot (ELISPOT) assay (Tanaka H et al., Br J Cancer 2001, 84(1): 94-9; Umano Y et al., Br J Cancer 2001, 84(8): 1052-7; Uchida N et al., Clin Cancer Res 2004, 10(24): 8577-86; Suda T et al., Cancer Sci 2006, 97(5): 411-9; Watanabe T et al., Cancer Sci 2005, 96(8): 498-506).
Specifically, peptide-pulsed C1R-A03 (1×10^4 cells/well) was prepared as the stimulator cell. The induced CTLs, i.e., CTL lines and CTL clones, were used as the responder cell. The IFN-gamma ELISPOT assay and IFN-gamma ELISA were performed according to the manufacturer's manual.

| Sequence | peptide-specific CTL activity (IFN-gamma production) ([1]; listed as CDCA1-A11-10-400) | peptide-specific CTL activity (IFN-gamma production) ([2]; listed as CDCA1-A03-10-400) | peptide-specific CTL activity (IFN-gamma production) ([1]; listed as CDCA1-A11-9-219) | peptide-specific CTL activity (IFN-gamma production) ([2]; listed as CDCA1-A03-9-219) |
| --- | --- | --- | --- | --- |
| KIKLGIQQLK (a peptide derived from CDCA1) [SEQ ID NO: 38] | potent IFN-gamma production; also recorded: significant specific CTL activity | potent IFN-gamma production; also recorded: significant specific CTL activity | – | – |
| KTKRLNELK (a peptide derived from CDCA1) [SEQ ID NO: 7] | – | – | potent IFN-gamma production; also recorded: significant specific CTL activity | potent IFN-gamma production; also recorded: significant specific CTL activity |
